{
  "source": "the NIST ThermoML archive (doi:10.1016/j.jct.2009.08.017)",
  "key": {"[1]": {"test": "Molar enthalpy of transition or fusion", "details": "Crystal; DSC"}, "[2]": {"details": "Crystal; DTA"}},
  "note": "± gives the expanded uncertainty stated by the source.",
  "data": [
    {"smiles": "Clc1ccc(C(c2ccccc2Cl)C(Cl)Cl)cc1", "note": "(configuration not stated) [1,1-dichloro-2-(2-chlorophenyl)-2-(4-chlorophenyl)ethane]", "values": [
      {"measurement": "Molar enthalpy of transition or fusion", "setting": "[1]", "value": "6.77 ± 0.201", "unit": "kcal/mol"},
      {"measurement": "Normal melting temperature", "setting": "[2]", "value": "80.00 ± 0.5", "unit": "°C"}
    ]}
  ]
}
